Source: patent US20240150321A1, “PYRAZOLYLSULFONAMIDE COMPOUNDS AND THEIR USE IN THERAPY” (HOTSPOT THERAPEUTICS, INC., priority 2022, published 2024)

Tests used:
Avi-tagged FL MALT-1 = Avi-tagged FL MALT-1 (Homo sapiens (Human), UniProt Q9UDY8); assay: MALT-1 Fluorogenic Peptide Cleavage Assay (MALT1 inhibition assay); type: biochemical; conditions: Ac-LRSR-AMC peptide substrate, 30 min pre-incubation, 90 min reaction at room temperature
Procedure, shortened: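 Full-length Avi-tagged human MALT-1 (40 nM working stock) pre-incubated 30 min at RT with compound in 25 mM HEPES pH 6.89, 660 mM sodium citrate, 1 mM TCEP, […], 0.05% CHAPS, 2% DMSO. Ac-LRSR-AMC added at Km (50 μM working stock) or 10×Km (280 μM working stock); 90 min at RT, AMC fluorescence (ex 342/em 441 nm), IC50 from % inhibition curves.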

[1] = system: NF-kB reporter in Jurkat cells; assay: NF-kB reporter assay in Jurkat cells stimulated with aCD3/aCD28/PMA; type: cell-based; conditions: Homo sapiens; Jurkat cells, 1 hr compound pre-incubation, aCD3/aCD28/PMA stimulation 4 hr, One-Glo readout; read-out: NF-kB Reporter Assay IC50
Procedure, shortened: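 Jurkat cells (25,000/well, serum-free RPMI) were pre-incubated 1 h at 37° C with serially diluted compound, then stimulated 4 h with aCD3/aCD28/PMA at final […]. NF-kB reporter activity was read by One-Glo luminescence; IC50 values reported.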

Avi-tagged FL MALT-1, sequence (Q9UDY8 whole entry): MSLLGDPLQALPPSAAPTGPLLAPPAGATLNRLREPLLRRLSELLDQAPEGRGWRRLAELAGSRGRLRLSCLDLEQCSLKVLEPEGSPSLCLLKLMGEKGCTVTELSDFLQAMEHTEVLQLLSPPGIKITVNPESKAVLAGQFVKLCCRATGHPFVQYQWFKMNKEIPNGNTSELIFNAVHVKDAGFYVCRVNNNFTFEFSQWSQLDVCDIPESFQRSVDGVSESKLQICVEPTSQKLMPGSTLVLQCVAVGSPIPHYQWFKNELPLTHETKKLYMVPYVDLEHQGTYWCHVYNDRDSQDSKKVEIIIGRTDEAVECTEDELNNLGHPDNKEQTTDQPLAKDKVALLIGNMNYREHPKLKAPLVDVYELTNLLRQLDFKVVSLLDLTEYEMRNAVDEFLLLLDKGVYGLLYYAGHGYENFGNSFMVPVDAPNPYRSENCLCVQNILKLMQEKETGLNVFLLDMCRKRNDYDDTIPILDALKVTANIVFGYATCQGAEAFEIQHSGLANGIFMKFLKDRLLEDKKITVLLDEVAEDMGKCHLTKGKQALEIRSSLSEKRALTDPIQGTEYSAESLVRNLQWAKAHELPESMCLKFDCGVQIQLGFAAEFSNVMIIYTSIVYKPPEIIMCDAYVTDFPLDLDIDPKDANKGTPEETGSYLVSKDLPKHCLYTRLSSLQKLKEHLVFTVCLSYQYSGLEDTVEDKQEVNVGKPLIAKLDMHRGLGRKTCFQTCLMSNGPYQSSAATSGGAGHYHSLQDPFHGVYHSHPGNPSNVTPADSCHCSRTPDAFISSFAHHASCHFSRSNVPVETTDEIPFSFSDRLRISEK

| IC50 (Avi-tagged FL MALT-1) [nM] | IC50 [1] [nM] | SMILES |
| --- | --- | --- |
| 400 to 1000 | 1000 to 2500 | Cn1ncc2ccc(CC#N)c(NS(=O)(=O)c3cnn(-c4ccnc(C(F)(F)F)c4)c3)c21 [Compound I-6, N-(6-(Cyanomethyl)-1-Methyl-1H-Indazol-7-yl)-1-(2-(Trifluoromethyl)Pyridin-4-yl)-1H-Pyrazole-4-Sulfonamide] |
| ≤ 400 | 400 to 1000 | CC(C)Oc1ccc2cnn(C)c2c1NS(=O)(=O)c1cnn(-c2ccnc(C(F)(F)F)c2)c1 [Compound I-10, N-(6-Isopropoxy-1-Methyl-1H-Indazol-7-yl)-1-(2-(Trifluoromethyl)Pyridin-4-yl)-1H-Pyrazole-4-Sulfonamide] |
| 400 to 1000 | < 400 | COc1ccc2cnn(C)c2c1NS(=O)(=O)c1cnn(-c2cc(C3(C#N)CCC3)ccn2)c1 [Compound I-457, 1-(4-(1-Cyanocyclobutyl)Pyridin-2-yl)-N-(6-Methoxy-1-Methyl-1H-Indazol-7-yl)-1H-Pyrazole-4-Sulfonamide] |
| 400 to 1000 | < 400 | COc1ccc2cnn(C)c2c1NS(=O)(=O)c1cnn(-c2cc(N3CCCC3)ccn2)c1 [Compound I-381, N-(6-methoxy-1-methylindazol-7-yl)-1-[4-(pyrrolidin-1-yl)pyridin-2-yl]pyrazole-4-sulfonamide] |
| > 2500 | < 400 | Cn1ncc2cccc(NS(=O)(=O)c3cnn(-c4cc(N5CC6CC5C6)ccn4)c3)c21 [Compound I-409, 1-(4-{2-azabicyclo[2.1.1]hexan-2-yl}pyridin-2-yl)-N-(1-methylindazol-7-yl)pyrazole-4-sulfonamide] |
| 400 to 1000 | < 400 | COc1ncc2cnn(C)c2c1NS(=O)(=O)c1cnn(-c2cc(N3CCC3)ccn2)c1 [Compound I-388, 1-[4-(azetidin-1-yl)pyridin-2-yl]-N-{6-methoxy-1-methylpyrazolo[4,3-c]pyridin-7-yl}pyrazole-4-sulfonamide] |
| 1000 to 2500 | < 400 | COc1ccc2cnn(C)c2c1NS(=O)(=O)c1cnn(-c2cc(N3CC(F)C3)ccn2)c1 [Compound I-442] |
| > 2500 | < 400 | COC1(c2ccnc(-n3cc(S(=O)(=O)Nc4cccc5cnn(C)c45)cn3)c2)CN(C)C1 [Compound I-252] |
| ≤ 400 | 400 to 1000 | C#Cc1ccc2cnn(C)c2c1NS(=O)(=O)c1cnn(-c2ccnc(C(F)(F)F)c2)c1 [Compound I-8, N-(6-Ethynyl-1-Methylindazol-7-yl)-1-(2-(Trifluoromethyl) Pyridin-4-yl)-Pyrazole-4-Sulfonamide] |
| ≤ 400 | < 400 | [2H]C([2H])([2H])n1ncc2ccc(OC)c(N(C)S(=O)(=O)c3cnn(-c4cc(C(F)(F)F)ccn4)c3)c21 [Compound I-336, N-(6-methoxy-1-(methyl-d3)-1H-indazol-7-yl)-N-methyl-1-(4-(trifluoromethyl)pyridin-2-yl)-1H-pyrazole-4-sulfonamide] |
| > 2500 | < 400 | Cn1ncc2cccc(NS(=O)(=O)c3cnn(-c4cc([C@@]5(F)CCOC5)ccn4)c3)c21 [Compound I-334] |
| > 2500 | < 400 | Cn1ncc2cccc(NS(=O)(=O)c3cnn(-c4cc(C5CCO5)ccn4)c3)c21 (stereo not shown) [Compound I-265, N-(1-methylindazol-7-yl)-1-[4-(oxetan-2-yl)pyridin-2-yl]pyrazole-4-sulfonamide] |
| > 2500 | < 400 | COc1ccc2cnn(C)c2c1NS(=O)(=O)c1cnn(-c2cc(N3CCOCC3)ccn2)c1 [Compound I-384] |
| > 2500 | < 400 | Cn1ncc2cccc(NS(=O)(=O)c3cnn(-c4cc(N5CCC6(CC6)C5)ccn4)c3)c21 [Compound I-410, 1-(4-{5-azaspiro[2.4]heptan-5-yl}pyridin-2-yl)-N-(1-methylindazol-7-yl)pyrazole-4-sulfonamide] |
| 400 to 1000 | 400 to 1000 | CCc1ccc2cnn(C)c2c1NS(=O)(=O)c1cnn(-c2ccc(OC)cn2)c1 [Compound I-42, N-(6-Ethyl-1-Methyl-1H-Indazol-7-yl)-1-(5-Methoxypyridin-2-yl)-1H-Pyrazole-4-Sulfonamide] |
| > 2500 | < 400 | Cn1ncc2cccc(NS(=O)(=O)c3cnn(-c4cc(C5COC5)ccn4)c3)c21 [Compound I-264, N-(1-methylindazol-7-yl)-1-[4-(oxetan-3-yl)pyridin-2-yl]pyrazole-4-sulfonamide] |
| > 2500 | < 400 | Cn1nc(F)c2cccc(NS(=O)(=O)c3cnn(-c4cc(C(C)(F)F)ccn4)c3)c21 [Compound I-139, 1-(4-(1,1-Difluoroethyl)Pyridin-2-yl)-N-(3-FLUORO-1-Methyl-1H-Indazol-7-yl)-1H-Pyrazole-4-Sulfonamide] |
| > 2500 | > 2500 | Cn1cc2ccc(Cl)c(NS(=O)(=O)c3cnn(-c4ccnc(C(F)(F)F)c4)c3)c2n1 [Compound I-47, N-(6-Chloro-2-Methyl-2H-Indazol-7-yl)-1-(2-(Trifluoromethyl) Pyridin-4-yl)-1H-Pyrazole-4-Sulfonamide] |
| 1000 to 2500 | 1000 to 2500 | Cn1ncc2ccc(C3CC3)c(NS(=O)(=O)c3cnn(-c4ccc(C(F)(F)F)cn4)c3)c21 [Compound I-20, N-(6-Cyclopropyl-1-Methyl-1H-Indazol-7-yl)-1-(5-(Trifluoromethyl)Pyridin-2-yl)-1H-Pyrazole-4-Sulfonamide] |
| > 2500 | > 2500 | COc1ccc2cnn(C)c2c1NS(=O)(=O)c1cnn(-c2cnc3n2CCOC3)c1 [Compound I-475, 1-(5,6-dihydro-8H-imidazo[2,1-c][1,4]oxazin-3-yl)-N-(6-methoxy-1-methyl-1H-indazol-7-yl)-1H-pyrazole-4-sulfonamide] |
| > 2500 | > 2500 | COCC(F)(COC)c1ccnc(-n2cc(S(=O)(=O)Nc3cccc4cnn(C)c34)cn2)c1 [Compound I-289] |
| ≤ 400 | < 400 | [2H]C([2H])([2H])Oc1ccc2cnn(C)c2c1NS(=O)(=O)c1cnn(-c2cc(C3CC3)ccn2)c1 [Compound I-96, 1-(4-cyclopropylpyridin-2-yl)-N-(6-(methoxy-d3)-1-methyl-1H-indazol-7-yl)-1H-pyrazole-4-sulfonamide] |
| > 2500 | < 400 | Cn1ncc2cccc(NS(=O)(=O)c3cnn(-c4cc(N5CC(F)(F)C5)ccn4)c3)c21 [Compound I-439, 1-[4-(3,3-difluoroazetidin-1-yl)pyridin-2-yl]-N-(1-methylindazol-7-yl) pyrazole-4-sulfonamide] |
| 400 to 1000 | 400 to 1000 | COc1ccc2cnn(C)c2c1NS(=O)(=O)c1cnn(-c2cc(C(F)(F)F)ncn2)c1 [Compound I-24, N-(6-Methoxy-1-Methyl-1H-Indazol-7-yl)-1-(6-(Trifluoromethyl)Pyrimidin-4-yl)-1H-Pyrazole-4-Sulfonamid] |
| > 2500 | < 400 | Cn1ncc2cccc(NS(=O)(=O)c3cnn(-c4cc(N5CC[C@H](F)C5)ccn4)c3)c21 [Compound I-429, 1-{4-[(3S)-3-fluoropyrrolidin-1-yl]pyridin-2-yl}-N-(1-methylindazol-7-yl) pyrazole-4-sulfonamide] |
| > 2500 | < 400 | Cn1ncc2cccc(NS(=O)(=O)c3cnn(-c4cc(N5CCC(F)(F)C5)ccn4)c3)c21 [Compound I-431, 1-[4-(3,3-difluoropyrrolidin-1-yl)pyridin-2-yl]-N-(1-methylindazol-7-yl)pyrazole-4-sulfonamide] |
